The values that follow come from US4231958A, “Ureylene phenylene anionic naphthalenesulfonic acids” (American Cyanamid Company, priority 1979, dated 1980).

Counter-ions that a name gives are not always drawn.

Test [1] deals with late components of human complement (C3-C9). Kind of test: Test Code 035 (C3-C9 inhibitor), lysis of EAC 142. The note with it: serial twofold dilution assay; higher well number indicates higher activity. The format is biochemical. An excerpt:
(§1) An active inhibitor protects C2 from C1 and C4; (ii) Test Code 035 (C3-C9 inhibitor)--This test determines the ability of the late components of human complement (C3-C9) to lyse EAC 142 in the presence of appropriate dilutions of the test compound. An active inhibitor protects EAC 142 from lysis by human C3-C9; (iii) Test Code 036 (C-Shunt inhibitor)--In this test human erythrocytes rendered fragile are lysed in autologous serum via the shunt pathway activated by cobra venom factor in the presence of appropriate dilutions of the test compound. Inhibition of the shunt pathway results in failure of lysis; (iv) Forssman Vasculitis Test--Here, the well known complement dependent lesion, Forssman vasculitis, is produced in guinea pigs by intradermal injection of rabbit anti-Forssman antiserum. The lesion is measured in terms of diameter, edema and hemorrhage and the extent to which a combined index of these is inhibited by prior intraperitoneal injection of the test compound at 200 mg/kg is then reported, unless otherwise stated; (v) Forssman Shock Test--Lethal shock is produced in guinea pigs by an i.v. injection of anti-Forssman antiserum and the harmonic mean death time of treated guinea pigs is compared with that of simultaneous controls; (vi) Complement Level Reduction Test--In this test, the above dosed guinea pigs, or others, are bled for serum and the complement level is determined in undiluted serum by the capillary tube method of U.S. Pat. No. 3,876,376 and compared to undosed control guinea pigs; and (vii) Cap 50 Test--Here, appropriate amounts of the test compound are added to a pool of guinea pig serum in vitro, after which the undiluted serum capillary tube assay referred to above is run. The concentration of compound inhibiting 50% is reported.

In test [2] the target is T1, activated human C1 (Homo sapiens, UniProt P09871).
T1 construct: cleavage of fluid-phase human C2 in presence of C4
Kind of test: Test Code 026 (C1-inhibitor). Format: biochemical. Conditions: serial twofold dilution assay; higher well number indicates higher activity.
Description: as §1

The test system of test [3] is shunt pathway activated by cobra venom factor. Kind of test: Test Code 036 (C-Shunt inhibitor), lysis of human erythrocytes in autologous serum, cobra venom factor. Format: cell-based. Conditions: serial twofold dilution assay; higher well number indicates higher activity.
Description: as §1

The test system of test [4] is complement system. The note with it: known from the literature; cited from earlier work.

T1 sequence (P09871 16-688): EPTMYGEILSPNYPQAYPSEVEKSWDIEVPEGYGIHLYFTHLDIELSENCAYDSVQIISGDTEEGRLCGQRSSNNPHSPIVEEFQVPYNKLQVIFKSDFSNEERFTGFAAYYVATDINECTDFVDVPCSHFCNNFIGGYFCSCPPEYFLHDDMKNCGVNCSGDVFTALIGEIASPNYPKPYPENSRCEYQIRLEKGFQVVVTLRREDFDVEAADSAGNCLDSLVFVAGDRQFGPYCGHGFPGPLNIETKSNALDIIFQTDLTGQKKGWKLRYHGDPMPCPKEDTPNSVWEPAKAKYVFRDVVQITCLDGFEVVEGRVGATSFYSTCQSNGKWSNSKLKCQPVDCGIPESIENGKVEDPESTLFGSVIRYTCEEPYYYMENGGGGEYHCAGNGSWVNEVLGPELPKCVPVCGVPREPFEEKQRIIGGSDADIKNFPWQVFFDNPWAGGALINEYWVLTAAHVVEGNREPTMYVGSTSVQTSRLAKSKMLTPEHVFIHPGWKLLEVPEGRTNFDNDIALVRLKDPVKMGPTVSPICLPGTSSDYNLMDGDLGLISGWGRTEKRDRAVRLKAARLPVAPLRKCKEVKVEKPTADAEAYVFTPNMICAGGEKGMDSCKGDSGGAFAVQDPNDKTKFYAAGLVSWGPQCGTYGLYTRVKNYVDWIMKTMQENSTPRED
T1 sequence (P00736 18-705 partner): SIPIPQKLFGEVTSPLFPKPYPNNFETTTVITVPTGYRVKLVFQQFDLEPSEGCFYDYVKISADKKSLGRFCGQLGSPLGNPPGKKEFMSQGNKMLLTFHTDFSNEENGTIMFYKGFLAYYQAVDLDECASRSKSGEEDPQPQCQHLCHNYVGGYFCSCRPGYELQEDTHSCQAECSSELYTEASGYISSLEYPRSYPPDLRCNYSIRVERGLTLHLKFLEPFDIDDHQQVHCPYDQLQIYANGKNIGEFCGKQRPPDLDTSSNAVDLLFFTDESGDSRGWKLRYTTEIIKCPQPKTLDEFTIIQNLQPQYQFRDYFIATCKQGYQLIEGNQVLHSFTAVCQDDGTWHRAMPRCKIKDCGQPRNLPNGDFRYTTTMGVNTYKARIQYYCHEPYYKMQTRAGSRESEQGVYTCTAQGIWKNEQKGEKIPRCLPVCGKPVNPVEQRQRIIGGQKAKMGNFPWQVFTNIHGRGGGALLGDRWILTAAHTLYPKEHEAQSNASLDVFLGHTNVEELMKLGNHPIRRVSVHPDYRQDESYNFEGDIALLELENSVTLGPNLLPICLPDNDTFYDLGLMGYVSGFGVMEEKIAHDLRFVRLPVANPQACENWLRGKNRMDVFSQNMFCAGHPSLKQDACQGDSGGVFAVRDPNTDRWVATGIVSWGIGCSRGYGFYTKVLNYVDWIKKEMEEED
T1 sequence (P02745 23-245 partner): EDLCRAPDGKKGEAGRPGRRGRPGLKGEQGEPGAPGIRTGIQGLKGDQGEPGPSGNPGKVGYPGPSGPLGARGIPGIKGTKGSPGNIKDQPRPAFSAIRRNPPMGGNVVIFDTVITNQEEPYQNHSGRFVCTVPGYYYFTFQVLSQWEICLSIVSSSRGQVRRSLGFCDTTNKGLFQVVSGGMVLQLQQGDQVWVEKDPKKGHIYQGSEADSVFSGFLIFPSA
T1 sequence (P02746 28-253 partner): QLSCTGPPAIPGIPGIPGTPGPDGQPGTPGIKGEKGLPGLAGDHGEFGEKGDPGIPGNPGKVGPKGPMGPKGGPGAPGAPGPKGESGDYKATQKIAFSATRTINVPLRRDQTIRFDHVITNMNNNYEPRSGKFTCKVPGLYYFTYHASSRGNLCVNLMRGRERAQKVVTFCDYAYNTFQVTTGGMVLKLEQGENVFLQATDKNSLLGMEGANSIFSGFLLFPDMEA
T1 sequence (P02747 29-245 partner): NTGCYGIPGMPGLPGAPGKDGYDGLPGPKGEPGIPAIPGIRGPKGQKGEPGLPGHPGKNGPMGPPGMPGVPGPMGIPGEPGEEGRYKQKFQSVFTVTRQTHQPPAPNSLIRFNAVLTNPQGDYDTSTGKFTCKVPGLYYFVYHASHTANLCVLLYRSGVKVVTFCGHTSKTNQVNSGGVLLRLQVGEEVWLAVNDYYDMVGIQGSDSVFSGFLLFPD

As for `Cc1ccc(S(=O)(=O)Nc2ccc(S(=O)(=O)O)c3cc(S(=O)(=O)O)cc(S(=O)(=O)O)c23)cc1NS(=O)(=O)c1cccc(NC(=O)Nc2cccc(S(=O)(=O)Nc3cc(S(=O)(=O)Nc4ccc(S(=O)(=O)O)c5cc(S(=O)(=O)O)cc(S(=O)(=O)O)c45)ccc3C)c2)c1` [8,8'-[Ureylenebis[(m-phenylenesulfonylimino) (4-methyl-3,1-phenylenesulfonyl)imino]]di-1,3,5-naphthalenetrisulfonic acid, hexasodium salt], the “C-Late 035* Wells” value in test [1] was “+1 Wells”. For the same compound, the “Cl 026* Wells” value in test [2] was “+3 Wells”. Also, the “Shunt Inhibition 036* Wells” value in test [3] was “N”.
The like results for `O=C(Nc1cccc(S(=O)(=O)Nc2cccc(S(=O)(=O)Nc3cc(S(=O)(=O)O)cc4cc(S(=O)(=O)O)cc(S(=O)(=O)O)c34)c2)c1)Nc1cccc(S(=O)(=O)Nc2cccc(S(=O)(=O)Nc3cc(S(=O)(=O)O)cc4cc(S(=O)(=O)O)cc(S(=O)(=O)O)c34)c2)c1` [8,8'-[Ureylenebis[[(1,3-phenylenesulfonylimino)-1,3-phenylenesulfonyl]imino]]di-1,3,6-naphthalenetrisulfonic acid, hexasodium salt] were, in that order, “+5 Wells”, “+4 Wells” and “+1 Wells”.
Taken in the same sequence, the figures for `Cc1ccc(NC(=O)Nc2ccc(C)c(S(=O)(=O)Nc3ccc(C)c(S(=O)(=O)Nc4cc(S(=O)(=O)[O-])cc5cc(S(=O)(=O)[O-])cc(S(=O)(=O)[O-])c45)c3)c2)cc1S(=O)(=O)Nc1ccc(C)c(S(=O)(=O)Nc2cc(S(=O)(=O)[O-])cc3cc(S(=O)(=O)[O-])cc(S(=O)(=O)[O-])c23)c1.[Na+].[Na+].[Na+].[Na+].[Na+].[Na+]` [8,8'-[Ureylenebis[[[(6-methyl-3,1-phenylene)sulfonyl]imino]-[[(6-methyl-3,1-phenylene)sulfonyl]imino]]]di-1,3,6-naphthalenetrisulfonic acid, hexasodium salt] were “+1 Wells”, “+3 Wells” and “N”.
Regarding `Cc1ccc(C(=O)Nc2ccc(S(=O)(=O)O)c3cc(S(=O)(=O)O)cc(S(=O)(=O)O)c23)cc1NC(=O)c1cccc(NC(=O)Nc2cccc(C(=O)Nc3cc(C(=O)Nc4ccc(S(=O)(=O)O)c5cc(S(=O)(=O)O)cc(S(=O)(=O)O)c45)ccc3C)c2)c1` [Suramin, reference compound], the “C-Late 035* Wells” value in test [1] is given as “+2 Wells”. Further, the “Cl 026* Wells” value in test [2] is on record as “+4 Wells”. Besides, in test [4], the “activity as a complement inhibitor” value is reported as “moderately active”.
